Experimental data: patent US20230124467A1, “COMPOUNDS AND METHODS FOR TREATING DISEASES AND/OR CONDITIONS CAUSED BY CORONAVIRUS” (priority 2020, published 2023)
Structures can show the parent of a compound that is named as a salt. Where two headings read alike, the source gives them in different places.

How the values were obtained:
Type in all cases: cell-based
VeroE6 cells = assay: Evaluation of toxicity without virus (CPE and MTT assay), Example 1; settings: for Minimum Cytotoxicity: absence of virus, 72 h
Experimental: Serially diluted compounds (⅒ dilution) were added in each well in the absence of virus and incubated for 72 hours, and at end point the CPE was recorded as above. In parallel, a duplicate plate was set up for an MTT assay (Abcam Ab 211091) carried out following the manufacturer’s recommendations. Briefly, the culture medium was discarded and 50 µl of fresh medium and MTT reagent was added to each well, including a background (no cell) control. The plates were returned to the 37° C. incubator for 3 hours before the MTT/media solution was discarded and 150 µl of MTT solvent was added to each well. The plates were incubated for a further 15 minutes in foil on a hula mixer and the absorbance recorded at 590 nm. The percentage of cytotoxicity was calculated as follows: (DMSO control - sample)/DMSO control, after replicate values were averaged and corrected for the background control (no cell control).

SARS-CoV-2 [1] = assay: In vitro antiviral assay, development of cytopathic effects (CPE), Example 1; settings: for minimal effective concentration: ten-fold dilutions from 25 µM, read-out: Initial titre (Minimum concentration of drug inhibiting development of CPE)
SARS-CoV-2 [2] = assay: microbe, parasite or virus in culture
[3] = Severe acute respiratory syndrome coronavirus 2, Vero C1008, 20 PFU/well SARS-CoV-2, VeroE6 cells, 72 h
[4] = Severe acute respiratory syndrome coronavirus 2, Vero C1008, Table 3A, predetermined IC50 of individual drug, Vero-E6, 20 pfu/well, read-out: IC50 (drug used alone)
[5] = Severe acute respiratory syndrome coronavirus 2, Vero C1008, Vero-E6, 20 pfu/well, 72 h, read-out: IC50 measured when each drug used individually
[6] = Severe acute respiratory syndrome coronavirus 2, Vero C1008, 72 h, 20 PFU/well SARS-CoV-2, VeroE6 cells, 72 h, narrower dilution steps in quadruplicate, read-out: Repeat TCID50 (TCID50 measurement for drugs showing greatest initial efficacy on titration)
[7] = Severe acute respiratory syndrome coronavirus 2, Vero C1008, 72 h, read-out: IC50 measured when each drug used individually
[8] = Severe acute respiratory syndrome coronavirus 2, Vero C1008, read-out: IC50 (drug used alone)

Structure (SMILES)	Minimum Cytotoxicity (VeroE6 cells)	minimal effective concentration (SARS-CoV-2 [1]; [3])	other results
COC(=O)N[C@H](C(=O)N[C@@H](Cc1ccccc1)[C@@H](O)CN(Cc1ccc(-c2ccccn2)cc1)NC(=O)[C@@H](NC(=O)OC)C(C)(C)C)C(C)(C)C [Atazanavir]	>25 µM	> 25 µM	–
C[C@H]1[C@H](NC(=O)/C(=N\OC(C)(C)C(=O)O)c2csc(N)n2)C(=O)N1S(=O)(=O)O [Aztreonam]	>25 µM	> 25 µM	–
CC(C)c1nc(CN(C)C(=O)N[C@@H](CCN2CCOCC2)C(=O)N[C@H](CC[C@H](Cc2ccccc2)NC(=O)OCc2cncs2)Cc2ccccc2)cs1 [Cobicistat]	>25 µM	> 25 µM	–
Nc1nc(F)nc2c1ncn2[C@@H]1O[C@H](COP(=O)(O)O)[C@@H](O)[C@@H]1O [Fludarabine phosphate]	25 µM	–	cytotoxicity in the MTT assay (VeroE6 cells; at 2.5 µM): none; cytotoxicity in the MTT assay (VeroE6 cells; at 25 µM): showed cytotoxicity
Nc1nc(=O)c2c([nH]1)NCC(CNc1ccc(C(=O)N[C@@H](CCC(=O)[O-])C(=O)[O-])cc1)N2C=O.[Ca+2] (some centres unmarked) [Folinic acid calcium salt hydrate]	>25 µM	–	minimal effective concentration (SARS-CoV-2 [1]; 20 PFU/well SARS-CoV-2, VeroE6 cells, 72 h): >25 µM
CCN(CCO)CCCC(C)Nc1ccnc2cc(Cl)ccc12 (centres unmarked) [Hydroxychloroquine]	25 µM	25 µM	IC50 (SARS-CoV-2 [2]; [4]): 1580 nM; IC50 (SARS-CoV-2 [2]; [5]): 1580 nM; cytotoxicity in the MTT assay (VeroE6 cells; at 2.5 µM): none; cytotoxicity in the MTT assay (VeroE6 cells; at 25 µM): showed cytotoxicity; IC50 (SARS-CoV-2 [1]; 20 PFU/well SARS-CoV-2, VeroE6 cells, 72 h, narrower dilution steps in quadruplicate, read-out: Repeat TCID50 (TCID50 measurement for drugs showing greatest initial efficacy on titration)): 2900 nM; IC50 (SARS-CoV-2 [1]; [6]): 2000 nM
CC(C)(C)NC(=O)[C@@H]1CN(Cc2cccnc2)CCN1C[C@@H](O)C[C@@H](Cc1ccccc1)C(=O)N[C@H]1c2ccccc2C[C@H]1O [Indinavir sulfate]	>25 µM	–	–
CS(=O)(=O)c1cccc(C[C@H](NC(=O)c2c(Cl)cc3c(c2Cl)CCN(C(=O)c2ccc4ccoc4c2)C3)C(=O)O)c1 [Lifitegrast]	>25 µM	> 25 µM	–
CCCNS(=O)(=O)Nc1ncnc(OCCOc2ncc(Br)cn2)c1-c1ccc(Br)cc1 [Macitentan]	>25 µM	> 25 µM	–
Cc1c(O)cccc1C(=O)N[C@@H](CSc1ccccc1)[C@H](O)CN1C[C@H]2CCCC[C@H]2C[C@H]1C(=O)NC(C)(C)C [Nelfinavir mesylate]	25 µM	–	IC50 (SARS-CoV-2 [2]; [7]): 390 nM; IC50 (SARS-CoV-2 [2]; [8]): 390 nM; cytotoxicity in the MTT assay (VeroE6 cells; at 2.5 µM): none; cytotoxicity in the MTT assay (VeroE6 cells; at 25 µM): showed cytotoxicity; IC50 (SARS-CoV-2 [1]; Severe acute respiratory syndrome coronavirus 2, Vero C1008, 72 h, read-out: Repeat TCID50 (TCID50 measurement for drugs showing greatest initial efficacy on titration), 20 PFU/well SARS-CoV-2, VeroE6 cells, 72 h, narrower dilution steps in quadruplicate): 2900 nM; IC50 (SARS-CoV-2 [1]; read-out: Repeat TCID50 (TCID50 measurement for drugs showing greatest initial efficacy on titration), 20 PFU/well SARS-CoV-2, VeroE6 cells, 72 h, narrower dilution steps in quadruplicate): 2000 nM
Cc1onc(-c2ccccc2)c1C(=O)N1CCN(c2ccc([N+](=O)[O-])cc2Cl)CC1 [Nucleozin]	>25 µM	> 25 µM	–
CCC(CC)COC(=O)[C@H](C)N[P@](=O)(OC[C@H]1O[C@@](C#N)(c2ccc3c(N)ncnn23)[C@H](O)[C@@H]1O)Oc1ccccc1 [Remdesivir]	–	–	IC50 (SARS-CoV-2 [2]; [7]): 1560 nM; IC50 (SARS-CoV-2 [2]; [8]): 1560 nM
Cc1cc(/C=C/C#N)cc(C)c1Nc1ccnc(Nc2ccc(C#N)cc2)n1 [Rilpivirine hydrochloride]	>25 µM	> 25 µM	–
Cn1nnc(-c2ccc(-c3ccc(N4C[C@H](COP(=O)(O)O)OC4=O)cc3F)cn2)n1 [Tedizolid phosphate]	>25 µM	> 25 µM	–
CCCc1nc(C)c2c(=O)[nH]c(-c3cc(S(=O)(=O)N4CCN(CC)CC4)ccc3OCC)nn12 [Vardenafil hydrochloride trihydrate, 2-[2-ethoxy-5-(4-ethylpiperazin-1-yl)sulfonylphenyl]-5-methyl-7-propyl-3H-imidazo[5,1-f][1,2,4]triazin-4-one]	>25 µM	25 µM	IC50 (SARS-CoV-2 [2]; [4]): 6250 nM; IC50 (SARS-CoV-2 [2]; [5]): 6250 nM; IC50 (SARS-CoV-2 [1]; [6]): > 25000 nM
